As a reminder, the Kd is a measure of binding affinity in units of concentration.

Numbered stars: 1 amine (or outer) side, 2 acyl side, 3 side chain; on linkers, the order of the positions; unused ones are H or OH. Square brackets hold non-standard residues; d marks the D form. Peptide text beside a SMILES is read from it. * marks the point of attachment. 5FAM = O=C1OC2(c3ccc(O)cc3Oc3cc(O)ccc32)c2ccc(C(=O)*)cc21; NHCH2C6H4(4-CH2CONH2) = NC(=O)Cc1ccc(CN*)cc1; X1 = O=C(Cc1ccc(CN[*:1])cc1)[*:2]

The target in this assay is T1, K-Ras (Homo sapiens, UniProt P01116, G12V).
T1 construct: purchased Cytoskeleton Inc. CS-RS04
Kind of assay: MST binding affinity of resynthesized NNP hits to K-Ras. Particulars: read-out: KD (nM) [95% conf. int]; MST; NNP1 library hit; target K-Ras; one-site binding model. As to the method: Loading was performed according to the following protocol: The 200 μM stock solution of the target protein was diluted to 10 μM in 20 mM HEPES pH 8.0, 150 mM NaCl, 10 mM MgCl2, 1 mM TCEP, 0.05% Tween-20 (total volume 110 μL). 10 μL were set aside for later labeling quality control. EDTA pH 8.0 (stock concentration 10 mM) was added to the protein solution to a final concentration of 80 μM. GTP (stock concentration 50 mM) was added to the protein solution to a final concentration of 750 μM. The solution was incubated at 30° C. for 2 hours (PCR tube) and then placed on ice for 2 minutes. MgCl2 was added to the protein solution to a final concentration of 100 mM. The resulting protein solution was buffer exchanged into the buffer required in the labeling kit for labeling. […] All the other target molecules (TNFα, IL-6, IL-6R and ASGPR) were used as received without any additional treatment.
Hit binding affinity to various targets were determined using Microscale Thermophoresis (MST). MST experiments were performed on a Monolith NT.115pico (NanoTemper Technologies GmbH, Munich, Germany). Measurements were performed at room temperature, in triplicate with incubation periods of 15, 30 and 45 minutes. […] Targets were labeled using Nanotemper Monolith 2nd Generation Protein Labeling Kits. RED-MALEIMIDE (Maleimide-647-dye) labeling kit was used for K-Ras and RED-NHS (NHS-647-dye) labeling kit was used for IL-6, IL-6R, TNFα and ASGPR. The buffer for the ASGPR contained 20 mM HEPES pH 7.4, 150 mM NaCl, 10 mM MgCl2, 2 mM CaCl2, 0.05% Pluronic F-127, and 1 mM DTT; for IL-6 contained 20 mM HEPES pH 7.4, 150 mM KCl, 10 mM MgCl2, and 0.1% Pluronic F-127; for the soluble IL-6 receptor 20 mM HEPES pH 7.4, 150 mM NaCl, 10 mM MgCl2, and 0.05% Tween-20; for K-Ras 20 mM HEPES pH 7.4, 150 mM NaCl, 10 mM MgCl2, 0.05% Tween-20 and 1 mM DTT; for TNFα 10 mM HEPES pH 7.4, 150 mM NaCl, 10 mM MgCl2, 0.05% Polysorbate-20. Triplicate data was analyzed using MO.AffinityAnalysis software (NanoTemper Technologies GmbH).
`CC(C)[C@H](NC(=O)[C@@H](Cc1ccc(O)cc1)NC(=O)[C@@H](Cc1c[nH]cn1)NC(=O)[C@H]1CCCN1C(=O)[C@@H](Cc1c[nH]c2ccccc12)NC(=O)c1ccc2c(c1)C(=O)OC21c2ccc(O)cc2Oc2cc(O)ccc21)C(=O)NCc1ccc(CC(=O)NCC(=O)N[C@@H](C(=O)N2CCC[C@@H]2C(=O)N[C@H](CCCNC(=N)N)C(=O)N[C@@H](C)C(=O)NCc2ccc(CC(=O)N3CCC[C@@H]3C(=O)N[C@H](CO)C(=O)N[C@H](CCC(=O)O)C(=O)N[C@H](CCCNC(=N)N)C(=O)NCC(=O)NCc3ccc(CC(=O)N4CCC[C@@H]4C(=O)N[C@H](CCCCN)C(=O)N[C@H](Cc4ccc(O)cc4)C(=O)N[C@H](CCCNC(=N)N)C(=O)N[C@@H](Cc4ccccc4)C(=O)NCc4ccc(CC(=O)N5CCC[C@@H]5C(=O)NCC(=O)N[C@H](CCCNC(=N)N)C(=O)N[C@H](Cc5c[nH]c6ccccc56)C(=O)NCC(=O)NCc5ccc(CC(=O)N[C@H](Cc6ccc(O)cc6)C(=O)N6CCC[C@@H]6C(=O)N[C@H](CCCNC(=N)N)C(=O)N[C@H](CCC(=O)O)C(=O)NCC(=O)NCc6ccc(CC(N)=O)cc6)cc5)cc4)cc3)cc2)C(C)C)cc1` [KRAS-1-2] (5FAM-[dW][dP][dH][dY]V[X1]G[dV][dP][dR]A[X1][dP][dS][dE][dR]G[X1][dP][dK][dY][dR]F[X1][dP]G[dR][dW]G[X1][dY][dP][dR][dE]G-{NHCH2C6H4(4-CH2CONH2)}): the dissociation constant Kd amounted to 49 nM. Under `CC(C)C[C@@H](NC(=O)c1ccc2c(c1)C(=O)OC21c2ccc(O)cc2Oc2cc(O)ccc21)C(=O)N1CCC[C@@H]1C(=O)N[C@H](CCC(=O)O)C(=O)N[C@H](CO)C(=O)N[C@@H](Cc1ccccc1)C(=O)NCc1ccc(CC(=O)NCC(=O)N[C@@H](C(=O)N2CCC[C@@H]2C(=O)N[C@H](CCCNC(=N)N)C(=O)N[C@@H](C)C(=O)NCc2ccc(CC(=O)N3CCC[C@@H]3C(=O)N[C@H](CO)C(=O)N[C@H](CCC(=O)O)C(=O)N[C@H](CCCNC(=N)N)C(=O)NCC(=O)NCc3ccc(CC(=O)N4CCC[C@@H]4C(=O)N[C@H](CCCCN)C(=O)N[C@H](Cc4ccc(O)cc4)C(=O)N[C@H](CCCNC(=N)N)C(=O)N[C@@H](Cc4ccccc4)C(=O)NCc4ccc(CC(=O)N[C@H](CCCNC(=N)N)C(=O)N[C@H](Cc5ccc(O)cc5)C(=O)N[C@@H](C(=O)N[C@H](CCC(=O)O)C(=O)N[C@@H](C)C(=O)NCc5ccc(CC(=O)NCC(=O)N[C@H](Cc6c[nH]c7ccccc67)C(=O)N[C@H](Cc6c[nH]cn6)C(=O)N[C@H](CCCNC(=N)N)C(=O)N[C@@H](C)C(=O)NCc6ccc(CC(N)=O)cc6)cc5)[C@H](C)O)cc4)cc3)cc2)C(C)C)cc1` [KRAS-1-3] (5FAM-[dL][dP][dE][dS]F[X1]G[dV][dP][dR]A[X1][dP][dS][dE][dR]G[X1][dP][dK][dY][dR]F[X1][dR][dY][dT][dE]A[X1]G[dW][dH][dR]A-{NHCH2C6H4(4-CH2CONH2)}) stands 18 nM. `CC(C)[C@H](NC(=O)[C@@H](Cc1ccc(O)cc1)NC(=O)[C@@H](Cc1c[nH]cn1)NC(=O)[C@H]1CCCN1C(=O)[C@@H](Cc1c[nH]c2ccccc12)NC(=O)c1ccc2c(c1)C(=O)OC21c2ccc(O)cc2Oc2cc(O)ccc21)C(=O)NCc1ccc(CC(=O)N2CCC[C@@H]2C(=O)N[C@H](CO)C(=O)NCC(=O)N[C@H](CO)C(=O)N[C@@H](C)C(=O)NCc2ccc(CC(=O)N3CCC[C@@H]3C(=O)N[C@H](CO)C(=O)N[C@H](CCC(=O)O)C(=O)N[C@H](CCCNC(=N)N)C(=O)NCC(=O)NCc3ccc(CC(=O)N4CCC[C@@H]4C(=O)N[C@H](CCCCN)C(=O)N[C@H](Cc4ccc(O)cc4)C(=O)N[C@H](CCCNC(=N)N)C(=O)N[C@@H](Cc4ccccc4)C(=O)NCc4ccc(CC(=O)N5CCC[C@@H]5C(=O)NCC(=O)N[C@H](CCCNC(=N)N)C(=O)N[C@H](Cc5c[nH]c6ccccc56)C(=O)NCC(=O)NCc5ccc(CC(=O)N[C@H](Cc6ccc(O)cc6)C(=O)N6CCC[C@@H]6C(=O)N[C@H](CCCNC(=N)N)C(=O)N[C@H](CCC(=O)O)C(=O)NCC(=O)NCc6ccc(CC(N)=O)cc6)cc5)cc4)cc3)cc2)cc1` [KRAS-1-5] (5FAM-[dW][dP][dH][dY]V[X1][dP][dS]G[dS]A[X1][dP][dS][dE][dR]G[X1][dP][dK][dY][dR]F[X1][dP]G[dR][dW]G[X1][dY][dP][dR][dE]G-{NHCH2C6H4(4-CH2CONH2)}): the equilibrium dissociation constant (Kd) worked out at 75 nM.

`CC(C)C[C@H](NC(=O)[C@@H](CCC(=O)O)NC(=O)[C@H](NC(=O)[C@H]1CCCN1C(=O)[C@@H](CCC(=O)O)NC(=O)c1ccc2c(c1)C(=O)OC21c2ccc(O)cc2Oc2cc(O)ccc21)[C@H](C)O)C(=O)NCc1ccc(CC(=O)NCC(=O)N[C@@H](C(=O)N2CCC[C@@H]2C(=O)N[C@H](CCCNC(=N)N)C(=O)N[C@@H](C)C(=O)NCc2ccc(CC(=O)N3CCC[C@@H]3C(=O)N[C@H](CO)C(=O)N[C@H](CCC(=O)O)C(=O)N[C@H](CCCNC(=N)N)C(=O)NCC(=O)NCc3ccc(CC(=O)N4CCC[C@@H]4C(=O)N[C@H](CCCCN)C(=O)N[C@H](Cc4ccc(O)cc4)C(=O)N[C@H](CCCNC(=N)N)C(=O)N[C@@H](Cc4ccccc4)C(=O)NCc4ccc(CC(=O)N[C@H](CCCNC(=N)N)C(=O)N[C@H](Cc5ccc(O)cc5)C(=O)N[C@@H](C(=O)N[C@H](CCC(=O)O)C(=O)N[C@@H](C)C(=O)NCc5ccc(CC(=O)NCC(=O)N[C@H](Cc6c[nH]c7ccccc67)C(=O)N[C@H](Cc6c[nH]cn6)C(=O)N[C@H](CCCNC(=N)N)C(=O)N[C@@H](C)C(=O)NCc6ccc(CC(N)=O)cc6)cc5)[C@H](C)O)cc4)cc3)cc2)C(C)C)cc1` [KRAS-1-10] (5FAM-[dE][dP][dT][dE]L[X1]G[dV][dP][dR]A[X1][dP][dS][dE][dR]G[X1][dP][dK][dY][dR]F[X1][dR][dY][dT][dE]A[X1]G[dW][dH][dR]A-{NHCH2C6H4(4-CH2CONH2)}): the Kd stood at 60 nM. Under `CC(C)[C@H](NC(=O)[C@@H](Cc1c[nH]c2ccccc12)NC(=O)[C@H]1CCCN1C(=O)[C@@H](Cc1c[nH]cn1)NC(=O)[C@@H](Cc1ccc(O)cc1)NC(=O)c1ccc2c(c1)C(=O)OC21c2ccc(O)cc2Oc2cc(O)ccc21)C(=O)NCc1ccc(CC(=O)NCC(=O)N[C@H](CCCCN)C(=O)N[C@H](Cc2c[nH]cn2)C(=O)N[C@H](CC(N)=O)C(=O)N[C@@H](Cc2ccccc2)C(=O)NCc2ccc(CC(=O)N3CCC[C@@H]3C(=O)N[C@H](CO)C(=O)N[C@H](CCC(=O)O)C(=O)N[C@H](CCCNC(=N)N)C(=O)NCC(=O)NCc3ccc(CC(=O)N4CCC[C@@H]4C(=O)N[C@H](CCCCN)C(=O)N[C@H](Cc4ccc(O)cc4)C(=O)N[C@H](CCCNC(=N)N)C(=O)N[C@@H](Cc4ccccc4)C(=O)NCc4ccc(CC(=O)N5CCC[C@@H]5C(=O)NCC(=O)N[C@H](CCCNC(=N)N)C(=O)N[C@H](Cc5c[nH]c6ccccc56)C(=O)NCC(=O)NCc5ccc(CC(=O)N[C@H](Cc6ccc(O)cc6)C(=O)N6CCC[C@@H]6C(=O)N[C@H](CCCNC(=N)N)C(=O)N[C@H](CCC(=O)O)C(=O)NCC(=O)NCc6ccc(CC(N)=O)cc6)cc5)cc4)cc3)cc2)cc1` [KRAS-1-11] (5FAM-[dY][dH][dP][dW]V[X1]G[dK][dH][dN]F[X1][dP][dS][dE][dR]G[X1][dP][dK][dY][dR]F[X1][dP]G[dR][dW]G[X1][dY][dP][dR][dE]G-{NHCH2C6H4(4-CH2CONH2)}) stands 60 nM; under `CC(C)C[C@H](NC(=O)[C@@H](CCCNC(=N)N)NC(=O)[C@@H](CCCCN)NC(=O)[C@@H](CCC(=O)O)NC(=O)[C@@H](Cc1ccccc1)NC(=O)Cc1ccc(CNC(=O)[C@H](Cc2ccccc2)NC(=O)[C@@H](CO)NC(=O)[C@@H](CCC(=O)O)NC(=O)[C@H]2CCCN2C(=O)[C@@H](CC(C)C)NC(=O)c2ccc3c(c2)C(=O)OC32c3ccc(O)cc3Oc3cc(O)ccc32)cc1)C(=O)NCc1ccc(CC(=O)N2CCC[C@@H]2C(=O)N[C@H](CO)C(=O)N[C@H](CCC(=O)O)C(=O)N[C@H](CCCNC(=N)N)C(=O)NCC(=O)NCc2ccc(CC(=O)N3CCC[C@@H]3C(=O)N[C@H](CCCCN)C(=O)N[C@H](Cc3ccc(O)cc3)C(=O)N[C@H](CCCNC(=N)N)C(=O)N[C@@H](Cc3ccccc3)C(=O)NCc3ccc(CC(=O)N4CCC[C@@H]4C(=O)NCC(=O)N[C@H](CCCNC(=N)N)C(=O)N[C@H](Cc4c[nH]c5ccccc45)C(=O)NCC(=O)NCc4ccc(CC(=O)NCC(=O)N[C@H](Cc5c[nH]c6ccccc56)C(=O)N[C@H](Cc5c[nH]cn5)C(=O)N[C@H](CCCNC(=N)N)C(=O)N[C@@H](C)C(=O)NCc5ccc(CC(N)=O)cc5)cc4)cc3)cc2)cc1` [KRAS-1-12] (5FAM-[dL][dP][dE][dS]F[X1][dF][dE][dK][dR]L[X1][dP][dS][dE][dR]G[X1][dP][dK][dY][dR]F[X1][dP]G[dR][dW]G[X1]G[dW][dH][dR]A-{NHCH2C6H4(4-CH2CONH2)}), 24 nM.

Values taken from patent US20230393140A1, “BINDING ASSAYS INVOLVING A PLURALITY OF SYNTHETIC COMPOUNDS, TARGETS, AND COUNTER TARGETS” (SRI International, priority 2020, published 2023).
